These results are taken from patent US9125879B2, “Composition containing a quinoa extract for dermatological use” (LABORATOIRES EXPANSCIENCE, priority 2006, dated 2015).

Holding throughout (assay type): cell-based
Assay [1] concerns MMP-9. Description: Dosage of MMP-9 protein secreted by keratinocytes (ELISA). The following applies: 5 ng/ml, supernatants of keratinocytes. As to the method: d. Dosage of MMP-9 Secreted by Keratinocytes.
The keratinocytes were sown in 24-well plates; after 24 hours in incubation at 37° C., with 5% CO2, the cells were treated with quinoa peptides with 0.05% and 0.01% DM. TGFβ tested at 5 ng/mL was used as a positive control. After 48 and 72 hours of treatment, the amount of MMP-9 secreted by the cells was assayed in the culture supernatant by means of an ELISA kit (R&D Systems), according to the procedure recommended by the supplier. In parallel, the amount of living cells per well was determined by a colorimetric neutral red test: optical density OD, proportional to the amount of living cells, is read at 570 nm.
The amount of MMP-9 is expressed in living cells: (ng/mL)/OD570 (optical density at 570 nm) MTT.

In assay [2] the test system is MMP-9. The assay can be described thus: Genic expression of MMP-9 in keratinocytes (RT-PCR). Conditions: 5 ng/ml, 48 hours. How it is done:
(§1) a. Study of the Effect of Quinoa Peptides on the Expression of Genes Coding for Laminin 5 and PPM-9 by RT-PCR • Principle of real time quantitative PCR: cf. Example 4 • Procedure:
(§2) On day 0, the keratinocytes were sown in 24-well plates in a KGM-2 medium. On D1, the cells were treated with TGFβ1 at 5 ng/mL or quinoa peptides with 0.05 and 0.1% DM for 48 hours. At the end of the treatment of the cells, the total RNAs were extracted (RNeasy MiniKit extraction kit; Qiagen) and then quantitatively assayed in minichips by means of the Experion system (Experion RNA StdSens kit; Biorad). The total RNAs were then backtranscribed into cDNA (iScript cDNA Synthesis kit; Biorad). Finally, the neo-synthesized cDNAs relative to the gene of interest (genes coding for the 3 chains making up laminin 5: […] and MMP-9) or to the reference genes (HPRT, GAPDH, YWHEZ, beta actin=normalizers) were selectively amplified by real time PCR (iQ5, Biorad) by using specific primers of the target sequences.

The subject of another assay is α-3 chain of laminin 5. The assay can be described thus: Genic expression of the α-3 chain of laminin 5 in keratinocytes (RT-PCR). The following applies: 5 ng/ml, 48 hours. As to the method: as §1, §2
A further assay has as its system β-3 chain of laminin 5. The assay can be described thus: Genic expression of the β-3 chain of laminin 5 in keratinocytes (RT-PCR). Conditions: 5 ng/ml, 48 hours. How it is done: as §1, §2
A further assay has as its system collagen I. The assay can be described thus: Genic expression of collagen I in fibroblasts (real time quantitative PCR). Conditions: 5 ng/mL, 48 hours. The text has this: (§3) b. Study of the Effect of Quinoa Peptides on the Expression of Genes Coding for Collagen I and Collagen III and Elastin by RT-PCR
(§4) b.1. Principle of Real Time Quantitative PCR:
(§5) Real time quantitative PCR or QRT-PCR (Quantitative Real Time Polymerase Chain Reaction) is a molecular biology method, which allows specific and quantitative measurement of the expression of genes of interest by amplification. Quantification is based on tracking the amplification of genes in real time by using as a reporter system, SYBR Green technology: a molecule with fluorescent properties which is inserted inside the double strand DNA. PCR takes place in a succession of temperature cycles according to 3 steps: • Denaturation: separation of 2 DNA strands. • Hybridization: recognition of a DNA sequence corresponding to a target gene by means of specific primers. • Extension: of the sequence of interest by a action of a polymerase.
(§6) DNA amounts are compared in the exponential part, moment during which the increase in the DNA amount is proportional to the initial matrix amount.
(§7) On D0, the fibroblasts were sown on 6-well plates in RPMI medium added with 10% SVF. On D1, the fibroblasts were treated with TGF β1 at 5 ng/mL or the quinoa oil concentrate with 0.005% and 0.01% DM in RPMI medium with 1% SVF for 48 hours. At the end of the treatment of the cells, the total […] were extracted (extraction kit RNeasy kit MiniKit; Qiagen) and then assayed quantitatively in minichips by means of an Experion system (Experion RNA StdSens kit; Biorad). Total RNAs are then back-transcribed into cDNA (iScript cDNA Synthesis kit; Biorad). Finally the neo-synthesized cDNAs relative to the genes of interest (collagen I, collagen III, elastin) or to reference genes (HPRT, GAPDH, YWHAZ, beta actin=normalizers) were selectively amplified with real time PCR (iQ5, Biorad) by using specific primers of the target sequences.
(§8) The expression of the reference genes is analyzed in the same samples as those for which expression of the genes of interest is evaluated in order to normalize the results and to make sure that they are actually the results of the effect of the treatment by quinoa oil concentrate.
(§9) b.3. Analysis of the Results:
(§10) The variation in the number of copies of the genes of interest during the treatment is then calculated according to the following formula: DDCt=control DCt−treatment DCt.
(§11) Finally, the relative amount or the expression level of the genes of interest, normalized by the expression level of the reference genes in the untreated and treated samples is obtained by the formula: QR=2DDCt

The test system of a further assay is elastin. Description: Genic expression of elastin in fibroblasts (real time quantitative PCR). The following applies: 5 ng/mL, 48 hours.
Source text: as §3, §4, §5, §6, §7, §8, §9, §10, §11

Another assay concerns KGF. Description: Dosage of KGF secreted by fibroblasts (ELISA). The following applies: for % A (increase) / Amount of KGF: 5 ng/ml, supernatants of fibroblasts. How it is done: e. Dosage of KGF Secreted by Fibroblasts
The fibroblasts were sown in a 24-well plate in RPMI at 1% SVF; after 24 hours of incubation at 37° C., with […], the cells were treated with quinoa peptides with 0.05% and 0.01% DM. IL1α (Sigma) at 100 ng/mL was used as a positive control. After 24 and 48 hours of treatment, the amount of KGF salted out by the fibroblasts was assayed with an ELISA kit (R&D Systems), according to the procedure recommended by the supplier. In parallel, the amount of living cells per well was determined by a colorimetric neutral red test: optical density OD, proportional to the amount of living cells, is read at 570 nm. In parallel, the amount of living cells per well was determined by an MTT colorimetric test: optical density OD, proportional to the amount of living cells, is read at 570 nm.
The amount of KGF is expressed by the living cells: pg/mL/OD570 MTT.
(In general: In an ELISA, binding on a coated surface is turned into a signal by an enzyme label.)

Another assay has as its system collagen III. Description: Genic expression of collagen III in fibroblasts (real time quantitative PCR). The following applies: 5 ng/mL, 48 hours.
Source text: as §3, §4, §5, §6, §7, §8, §9, §10, §11

A further assay relates to γ-2 chain of laminin 5. The assay can be described thus: Genic expression of the γ-2 chain of laminin 5 in keratinocytes (RT-PCR). The following applies: 5 ng/ml, 48 hours. As to the method:
as §1, §2

A further assay has as its system keratinocytes. Description: Proliferation of keratinocytes by the MTT method. How it is done:
c. Study of the Proliferation of Keratinocytes by the MTT Method
On D0, the keratinocytes are sown in a KGM2 medium day1, the cells are treated with trans-retinoic acid (ATRA) at 1 μM or quinoa peptides with 0.05% and 0.1% DM for 24 and 48 hours. At the end of the treatment, cell viability is quantified by an MTT test: after 3 hours of contact with MTT, the formed formazan crystals are solubilized by DMSO and the optical density, proportional to the amount of metabolically active cells therefore live cells, is read at 570 nm against the blank (wells without any cells).
In general terms: Tetrazolium assays rely on reduction of a dye to a coloured formazan, in cell work by metabolically active cells.

As to “TGFβ: growth factor used as a positive control at 5 ng/mL”, the “% A (increase)” value in the assay with MMP-9 [1] (treatment 48 h) amounted to 372%; in the assay with MMP-9 [1] (treatment 72 h), 568%; in the assay with KGF (treatment 24 h), 431%; in the assay with KGF (treatment 48 h), 336%. The “Amount of MMP-9” value with MMP-9 [1] (treatment 48 h) amounted to 11.604 ng/mL/OD neutral red; with MMP-9 [1] (treatment 72 h), 14.746 ng/mL/OD neutral red. The “% of induction” value is recorded as 807% in the assay on MMP-9 [2]; 1193% with α-3 chain of laminin 5; 420% in the assay with β-3 chain of laminin 5; 87% with collagen I; 435% with elastin; 427% in the assay with collagen III. Besides, the “% of induction” value in the assay on γ-2 chain of laminin 5 came out at 1676%. For the same molecule, the “Mean dCt” value in the assay on MMP-9 [2] was 3.07; with α-3 chain of laminin 5, −0.944; in the assay on β-3 chain of laminin 5 it was −0.944; with collagen I, −3.2; in the assay with collagen III, 2.51; in the assay with γ-2 chain of laminin 5, −1.925. The QR with MMP-9 [2] is recorded as 8; in the assay on α-3 chain of laminin 5 it was 12.93; in the assay on α-3 chain of laminin 5 (listed as TGF-β1), around 12; in the assay on β-3 chain of laminin 5, 5.20; with β-3 chain of laminin 5 (listed as TGF-β1), around 5; in the assay with collagen I, 1.87. The QR in the assay on elastin is recorded as 5.35; with collagen III, 5.27; in the assay on γ-2 chain of laminin 5, 17.76; in the assay with γ-2 chain of laminin 5 (listed as TGF-β1), around 17. Also, the ddCt with MMP-9 [2] is given as 3.01; in the assay with α-3 chain of laminin 5, 3.69; in the assay on β-3 chain of laminin 5 it was 2.38; in the assay on collagen I it was 0.9; in the assay on elastin, 2.4; in the assay on collagen III, 2.4. The ddCt with γ-2 chain of laminin 5 was determined as 4.15. The molecule also showed a dCt with elastin of 2.16. In addition, the “Amount of KGF” value in the assay with KGF (treatment 24 h) amounted to 147.886 pg/mL/OD neutral red; with KGF (treatment 48 h) it was 352.387 pg/mL/OD neutral red.

In the case of `CC1=C(/C=C/C(C)=C/C=C/C(C)=C/C(=O)O)C(C)(C)CCC1` [ATRA, trans-retinoic acid], in the assay with keratinocytes (1 μM), the “Mean OD570 (MTT)” value is 1.361. In the assay on keratinocytes (1 μM, negative control = 100), the “% of proliferation” value is recorded as 136%. The proliferation rate induced entry in the assay with keratinocytes (positive control) is given as “+36%”.

B1: IL1α: IL1α (Sigma) at 100 ng/mL used as a positive control (protein, UniProt P01583 113-271, looked up)
Interleukin-1 alpha: SAPFSFLSNVKYNFMRIIKYEFILNDALNQSIIRANDQYLTAAALHNLDEAVKFDMGAYKSSKDDAKITVILRISKTQLYVTAQDEDQPVLLKEMPEIPKTITGSETNLLFFWETHGTKNYFTSVAHPNLFIATKQDYWVCLAGGPPSITDFQILENQA
Take B1: the “synthesis of KGF by fibroblasts” value with KGF (positive control, 100 ng/mL) was “increased”.
